Read-outs that look alike come from different tables or passages of the source.
What was measured:
[1] = target: M^Pro-eGFP ectopically expressed in 293T cells (Severe acute respiratory syndrome coronavirus 2, UniProt P0DTD1); test: cell-based; format: cell-based, SARS-CoV-2
[2] = tested on: SARS-CoV-2 USA-WA1/2020 strain; test: Plaque reduction neutralization test in Vero E6 cells, USA-WA1/2020; format: cell-based; conditions: PRNT, three days
SARS-CoV-2 Delta strain = test: Plaque reduction neutralization test in Vero E6 cells, Delta; format: cell-based; conditions: PRNT, three days
SARS-CoV-2 Beta strain = test: Plaque reduction neutralization test in Vero E6 cells, Beta; format: cell-based; conditions: PRNT, three days
SARS-CoV-2 = conditions: read-out: EC50 as SARS-CoV-2 inhibitor; cited from earlier work
[3] = rats, oral administration; cited from earlier work
M^Pro = conditions: cited from earlier work

In the case of CC(C)(C)OC(=O)N[C@H](C(=O)N1C[C@H]2[C@@H]([C@H]1C(=O)N[C@H](C=O)C[C@@H]1CCNC1=O)C2(C)C)C(C)(C)C [MPI43], the “in cellulo potency higher than MPI40” value [1] is reported as 20 fold.

Work on CC(C)[C@H](NC(=O)NC(C)(C)C)C(=O)N[C@@H](CC1CC1)C(=O)N[C@H](C=O)C[C@@H]1CCNC1=O [MPI39] yielded an EC50 [1] of over 10 µM.

With CC(C)(C)CC(=O)N[C@H](C(=O)N1C[C@H]2[C@@H]([C@H]1C(=O)N[C@H](C=O)C[C@@H]1CCNC1=O)C2(C)C)C(C)(C)C [MPI40] the “Antiviral EC50” value [2] was “no inhibition at all tested concentrations”, the “Antiviral EC50” value (SARS-CoV-2 Delta strain) was “no inhibition at all tested concentrations” and the “Antiviral EC50” value (SARS-CoV-2 Beta strain) was “no inhibition at all tested concentrations”.

In the case of MPI8, the EC50 (SARS-CoV-2) is given as 0.03 µM, the half-life [3] is given as 1.22 h and the IC50 (M^Pro; read-out: IC50 (in vitro potency)) is given as about 0.1 µM.

For CC(C)(C)NC(=O)N[C@H](C(=O)N1C[C@H]2[C@@H]([C@H]1C(=O)NC(CC1CCC1)C(=O)C(N)=O)C2(C)C)C(C)(C)C (stereo partly shown) [Boceprevir], the IC50 (M^Pro; read-out: Enzymatic IC50, ref 15) is given as 8 µM and the IC50 (M^Pro; read-out: Enzymatic IC50, ref 16) is given as 4.2 ± 0.6 µM.
